Tests used:
MDA MB231 cells = experiment: Separation of cellular FLT and FLT-phosphate by TLC; assay type: cell-based, human; settings: one hour after adding FLT
Text: To discriminate between FLT and FLT-phosphate, cells in another identical plate were harvested and after stopping the enzyme reaction, cells were sonificated and spun down. 3′-deoxy-3′-[^18F]fluorothymidine and FLT-phosphate, present in the supernatant were separated as described above (section TK enzyme activity).

[1] = biological target: T1, recombinant cytosolic TK-1 (Homo sapiens, UniProt P04183); experiment: Phosphorylation of [CH3-3H]dThd by recombinant TK-1; assay type: biochemical
T1 sequence (P04183 1-234): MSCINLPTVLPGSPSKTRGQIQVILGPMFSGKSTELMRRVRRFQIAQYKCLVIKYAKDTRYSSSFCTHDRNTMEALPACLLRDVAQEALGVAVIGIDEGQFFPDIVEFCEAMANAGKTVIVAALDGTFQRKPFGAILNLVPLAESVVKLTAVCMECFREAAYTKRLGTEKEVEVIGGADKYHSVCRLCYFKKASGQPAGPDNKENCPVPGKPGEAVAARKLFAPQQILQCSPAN
Experimental: (§1) A 50 μl reaction mixture, containing 50 mM Tris-HCl, pH 8.0, 2.5 mM MgCl2, 10 mM dithiothreitol, 2.5 mM ATP, 1.0 mg ml^−1 bovine serum albumin, 10 mM NaF, [CH3-^3H]dThd (0.1 μCi in 5 μl; 1 μM final concentration) and 5 μl of recombinant enzyme, was incubated at 37°C for 30 min in the presence or absence of different concentrations of dCTP or KIN52.

[2] = biological target: T2, recombinant mitochondrial TK-2 (Homo sapiens, UniProt O00142); experiment: Phosphorylation of [CH3-3H]dThd by recombinant TK-2; assay type: biochemical
T2 sequence (O00142 34-265): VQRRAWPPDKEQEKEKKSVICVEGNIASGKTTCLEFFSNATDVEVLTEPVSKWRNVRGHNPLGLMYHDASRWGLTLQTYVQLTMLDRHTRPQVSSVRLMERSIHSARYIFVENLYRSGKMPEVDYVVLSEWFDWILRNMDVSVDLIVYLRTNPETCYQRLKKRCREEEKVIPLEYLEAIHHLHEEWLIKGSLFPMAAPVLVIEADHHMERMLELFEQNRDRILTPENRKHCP
Experimental: as §1, with “[…] A 50” for “A 50”, “or KIN52. During this time, the enzyme reaction proceeded linearly. Formation of tritiated dTMP was measured by spotting aliquots of the reaction mixture on Whatman DE-81 filter paper disks, as described earlier ([Balzarini et al, 2003]).” for “or KIN52.”

purified TK-2 = biological target: T3, purified TK-2 (Homo sapiens, UniProt O00142); experiment: FLT phosphorylation by purified TK-2; assay type: biochemical
T3 construct: gift: A. Karlsson, Karolinska Institute, Stockholm, Sweden
T3 sequence (O00142 34-265): T2 sequence (O00142 34-265)
Experimental: (§2) 3′-deoxy-3′-[^18F]fluorothymidine was diluted with 50 mM Tris/1 mM EDTA (pH 7.4) and 1 : 1 mixed with 20 mM ATP, 10 mM MgCl2, resulting in an FLT concentration of about 60 MBq ml^−1 (6.32–18.89 pmol per sample). […] was inhibited by addition of dCTP or the specific TK-2 inhibitor KIN52 (final concentration 2 μM) ([Balzarini et al, 2003]).
(§3) The assay was optimised for protein concentration and incubation times. Diluted cell lysates or purified TK-2 (kindly provided by A. Karlsson, Karolinska Institute, Stockholm, Sweden) were incubated with the FLT mixture for 15 min at 37°C and the reaction was stopped by heating the samples at 95°C for 5 min. Substrate (FLT) and product (FLT-phosphate) were separated by TLC and radioactivity was measured in a single-well gamma counter (Wallac1480 Wizard, Perkin Elmer Lifescience, MA, USA). Protein concentrations were measured in a Bio-Rad Bradford protein assay (Bio-Rad Laboratories, Hercules, CA, USA). Thymidine kinase activity was calculated as the amount of FLT converted into FLT-phosphate per hour per million cells (nmol h^−1 10^−6 cells).

[3] = test system: cellular TK activities (MDA MB231 cell lysates); experiment: Inhibition of cellular TK activity by TK-2 inhibitors added to cell lysates; assay type: biochemical, human; settings: dCTP 10 μM added to cell lysates
Experimental: Cell pellets were suspended in 50 mM Tris/1 mM EDTA (pH 7.4) and sonificated on ice. Lysates were spun down and supernatant diluted 1 : 8 in 50 mM Tris/1 mM EDTA (pH 7.4).
as §2, §3

[4] = substrate: Cc1cn([C@H]2C[C@H](O)[C@@H](CO)O2)c(=O)[nH]c1=O; experiment: Phosphorylation of [CH3-3H]dThd by recombinant TK-2; assay type: biochemical; settings: other: TK-2, Lineweaver–Burk; pH 8.0; 37.0 °C
Experimental: as §1, with “[…] A 50” for “A 50”, “or KIN52. During this time, the enzyme reaction proceeded linearly. Formation of tritiated dTMP was measured by spotting aliquots of the reaction mixture on Whatman DE-81 filter paper disks, as described earlier ([Balzarini et al, 2003]).” for “or KIN52.”

Question: How did the “cellular radioactivity as unphosphorylated FLT” value (MDA MB231 cells) turn out when `Cc1cn([C@H]2C[C@H]([18F])[C@@H](CO)O2)c(=O)[nH]c1=O` [FLT, 3′-deoxy-3′-[^18F]fluorothymidine] was run?
Answer: less than 20%

Question: What about the “cellular radioactivity counts due to FLT phosphate” value (MDA MB231 cells) of the same molecule?
Answer: more than 80%

Question: And the Ki ([1]; TK-1, competitive vs dThd, read-out: Ki FLT)?
Answer: 1.9 µM

Question: What about the Ki/Km ([2]; TK-2) of the same molecule?
Answer: 3.2

Question: What about the Ki ([2]; TK-2, competitive vs dThd, read-out: Ki FLT) of the same molecule?
Answer: 4.2 µM

Question: What about the “conversion of FLT into FLT-phosphate” value (purified TK-2; FLT added to purified TK-2) of the same molecule?
Answer: 8%

Question: Which “inhibition of cellular TK activities” value [3] does the source give for `Nc1ccn([C@H]2C[C@H](O)[C@@H](COP(=O)(O)OP(=O)(O)OP(=O)(O)O)O2)c(=O)n1` [dCTP] here?
Answer: 55–90%

Question: And the IC50 ([1]; TK-1, 1 μM [CH3-3H]dThd as substrate)?
Answer: ~5 µM

Question: And the IC50 ([2]; TK-2, 1 μM [CH3-3H]dThd as substrate)?
Answer: ~50 µM

Question: What about the “inhibition of FLT phosphorylation by TK-2” value (purified TK-2; dCTP 10 mM) of the same molecule?
Answer: 97%

B1: recombinant mitochondrial TK-2 (Homo sapiens) (protein)
chain: T2 sequence (O00142 34-265)
Question: With B1 as the molecule, how does the Km [4] read?
Answer: 1.3 µM

Reference: article PMC2527810, “[^18F]FDG and [^18F]FLT uptake in human breast cancer cells in relation to the effects of chemotherapy: an in vitro study” (British Journal of Cancer, 2008)
